Among the data in patent US20240300948A1, “Heterocyclic Compounds As Kinase Inhibitors” (Incyte Corporation, priority 2023, published 2024) are IC50 values, retold here.

The target in experiment [1] is T1, pseudo-kinase domain (JH2, amino-acids 536-812 with 3 surface mutations W659A, W777A, F794H) of human V617F mutant JAK2 (Homo sapiens, UniProt O60674, F794H/V617F/W659A/W777A).
T1 construct: pseudo-kinase domain (JH2, amino-acids 536-812 with 3 surface mutations W659A, W777A, F794H); His (C); Avi (biotinylated) (C); purchased BPS Bioscience 79498; host or cells: baculovirus expression system
T1 sequence (O60674 536-812 V617F/W659A/W777A/F794H): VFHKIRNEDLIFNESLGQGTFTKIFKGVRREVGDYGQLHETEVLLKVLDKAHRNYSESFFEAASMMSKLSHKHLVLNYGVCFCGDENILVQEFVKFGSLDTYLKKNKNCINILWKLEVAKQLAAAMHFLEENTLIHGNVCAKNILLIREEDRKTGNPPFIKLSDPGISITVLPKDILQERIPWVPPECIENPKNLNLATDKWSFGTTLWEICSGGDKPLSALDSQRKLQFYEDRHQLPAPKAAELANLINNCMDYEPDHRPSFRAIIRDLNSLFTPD
Description: JAK2 LanthaScreen JH2-V617F binding assay. To be noted: 50 nM tracer, 1 hour at 25° C., read-out: JH2 BIND V617F IC50. Summed up: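 IC50 values came from four-parameter dose-response fits of LanthaScreen signal, read after compounds sat 1 hour at 25° C with 0.26 nM baculovirus-expressed biotinylated protein, 50 nM fluorescent tracer and 0.25 nM streptavidin-Tb cryptate. Non-specific binding was set with 2 mM ATP.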
A general note: In TR-FRET formats the signal depends on donor and acceptor labels being close together.

Experiment [2] concerns the target T2, pseudo-kinase domain (JH2, amino-acids 536-812 with 3 surface mutations W659A, W777A, F794H) of human Wild Type JAK2 (Homo sapiens, UniProt O60674, F794H/W659A/W777A).
T2 construct: pseudo-kinase domain (JH2, amino-acids 536-812 with 3 surface mutations W659A, W777A, F794H); His (C); Avi (biotinylated) (C); purchased BPS Bioscience 79463; host or cells: baculovirus expression system
Description: JAK2 LanthaScreen JH2-WT binding assay. Particulars: 50 nM tracer, 1 hour at 25° C., read-out: JH2 BIND WT IC50. The method in brief:
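TR-FRET tracer displacement: IC50 from four-parameter dose-response fit. Reaction: compound, 0.145 nM biotinylated JH2 protein from baculovirus, 0.25 nM streptavidin-Tb and 50 nM tracer, 1 h at 25° C, 50 mM Tris pH 7.5 buffer. 2 mM ATP gave non-specific binding.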

In experiment [3] the target is T3, catalytic domain (JH1, amino acids 826-1132) of human JAK2 (Homo sapiens, UniProt O60674).
T3 construct: catalytic domain (JH1, amino acids 826-1132) of human JAK2; FLAG (N); purchased Carna Biosciences 08-445-20N; host or cells: baculovirus expression system
T3 sequence (O60674 826-1132): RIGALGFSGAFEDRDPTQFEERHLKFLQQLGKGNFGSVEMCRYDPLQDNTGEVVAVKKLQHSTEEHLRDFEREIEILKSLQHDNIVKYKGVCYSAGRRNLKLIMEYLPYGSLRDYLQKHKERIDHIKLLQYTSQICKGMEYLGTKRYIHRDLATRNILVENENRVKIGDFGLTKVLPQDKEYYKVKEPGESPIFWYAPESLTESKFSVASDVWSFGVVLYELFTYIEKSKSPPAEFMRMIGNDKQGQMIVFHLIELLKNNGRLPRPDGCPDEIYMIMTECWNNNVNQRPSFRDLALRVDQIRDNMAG
In words: JAK2 LanthaScreen JH1 binding assay. To be noted: 50 nM tracer, 2 hours at 25° C., read-out: JH1 BIND IC50. Summed up:
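Binding of compounds to biotinylated, FLAG-tagged human JAK2 JH1 (aa 826-1132; 1.5 nM) was measured by LanthaScreen TR-FRET with 50 nM fluorescent tracer and 0.5 nM streptavidin-Tb, in pH 7.5 Tris buffer. Non-specific binding was defined with 2 mM ATP. After 2 h at 25 °C, IC50 was fitted from four-parameter dose-response curves.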

T2 sequence (O60674 536-812 W659A/W777A/F794H): as the sequence (O60674 536-812 V617F/W659A/W777A/F794H) above, with F82V counted along it

Broadly, the IC50 is the concentration at which inhibition is half-maximal. Regarding `CC(C)n1ncc2cc(-c3c(-c4cnn(C)c4)[nH]c4ncc5c(c34)N([C@H]3C[C@@H](NS(C)(=O)=O)C3)C(=O)NC5)ccc21` [Example 6, N-((1s,3s)-3-(9-(1-Isopropyl-1H-indazol-5-yl)-8-(1-methyl-1H-pyrazol-4-yl)-2-oxo-2,3,4,7-tetrahydro-1H-pyrrolo[3′,2′:5,6]pyrido[4,3-d]pyrimidin-1-yl)cyclobutyl) methanesulfonamide], the IC50 in experiment [1] is 10 to 100 nM; in experiment [2], not above 10 nM; in experiment [3] it was 100 to 500 nM.

In the case of `CC(C)n1ncc2cc(-c3c(-c4cnn(C)c4)[nH]c4ncc5c(c34)N([C@H]3C[C@H](NS(C)(=O)=O)C3)C(=O)NC5)ccc21` [Example 3, N-((1r,3r)-3-(9-(1-Isopropyl-1H-indazol-5-yl)-8-(1-methyl-1H-pyrazol-4-yl)-2-oxo-2,3,4,7-tetrahydro-1H-pyrrolo[3′,2′:5,6]pyrido[4,3-d]pyrimidin-1-yl)cyclobutyl) methan esulfonamide], the IC50 in experiment [1] is not above 10 nM; in experiment [2], not above 10 nM; in experiment [3], 10 to 100 nM.

For the compound `CC(C)n1ncc2cc(-c3c(-c4cnn(C)c4)[nH]c4ncc5c(c34)N([C@H]3C[C@@H](NC(=O)c4nc(C(F)(F)F)cs4)C3)C(=O)NC5)ccc21` [Example 22, N-((1s,3s)-3-(9-(1-isopropyl-1H-indazol-5-yl)-8-(1-methyl-1H-pyrazol-4-yl)-2-oxo-2,3,4,7-tetrahydro-1H-pyrrolo[3′,2′:5,6]pyrido[4,3-d]pyrimidin-1-yl)cyclobutyl)-4-(trifluoromethyl)thiazole-2-carboxamide], the IC50 was 100 to 500 nM in experiment [1], 100 to 500 nM in experiment [2] and more than 1000 nM in experiment [3].

With `COC(=O)N[C@@H]1CC[C@@H](n2c(=O)nc(N(C)C)c3cnc4[nH]c(-c5cnn(C)c5)c(-c5ccc6c(cnn6C(C)C)c5)c4c32)C1` [Example 43, Methyl ((1R,3R)-3-(4-(dimethylamino)-9-(1-isopropyl-1H-indazol-5-yl)-8-(1-methyl-1H-pyrazol-4-yl)-2-oxo-2,7-dihydro-1H-pyrrolo[3′,2′:5,6]pyrido[4,3-d]pyrimidin-1-yl)cyclopentyl)carbamate], the IC50 in experiment [1] was 100 to 500 nM; in experiment [2], 100 to 500 nM; in experiment [3] it was more than 1000 nM.

As for `COC(=O)N[C@@H]1CC[C@@H](N2C(=O)NCc3cnc4[nH]c(-c5cnn(C)c5)c(-c5ccc(OC)cc5)c4c32)C1` [Example 28, Methyl ((1R,3R)-3-(9-(4-methoxyphenyl)-8-(1-methyl-1H-pyrazol-4-yl)-2-oxo-2,3,4,7-tetrahydro-1H-pyrrolo[3′,2′:5,6]pyrido[4,3-d]pyrimidin-1-yl)cyclopentyl)carbamate], the IC50 is 10 to 100 nM in experiment [1], 10 to 100 nM in experiment [2] and more than 1000 nM in experiment [3].

As for `COC(=O)N[C@H]1C[C@H](N2C(=O)NCc3cnc4[nH]c(-c5cc(C)nc(C)c5)c(-c5ccc6c(cnn6C(C)C)c5)c4c32)C1` [Example 35, Methyl ((1r,3r)-3-(8-(2,6-dimethylpyridin-4-yl)-9-(1-isopropyl-1H-indazol-5-yl)-2-oxo-2,3,4,7-tetrahydro-1H-pyrrolo[3′,2′:5,6]pyrido[4,3-d]pyrimidin-1-yl)cyclobutyl) carbamate], the IC50 is 10 to 100 nM in experiment [1], 10 to 100 nM in experiment [2] and more than 1000 nM in experiment [3].

`COC(=O)N[C@@H]1CC[C@@H](n2c(=O)nc(N)c3cnc4[nH]c(-c5cnn(C)c5)c(-c5ccc6c(cnn6C(C)C)c5)c4c32)C1` [Example 41, Methyl ((1R,3R)-3-(4-amino-9-(1-isopropyl-1H-indazol-5-yl)-8-(1-methyl-1H-pyrazol-4-yl)-2-oxo-2,7-dihydro-1H-pyrrolo[3′,2′:5,6]pyrido[4,3-d]pyrimidin-1-yl)cyclopentyl)carbamate]: the IC50 in experiment [1] is not above 10 nM; in experiment [2], not above 10 nM; in experiment [3], 500 to 1000 nM.
